Assay results from patent publication US9695155B2, “Herbicidal substituted pyrimidinyloxy benzene compounds” (E. I. DU PONT DE NEMOURS AND COMPANY, priority 2013, dated 2017).

What was measured:
morningglory = assay: Test A preemergence; type: in vivo, Ipomoea spp.
Outline: (§1)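 Greenhouse pot test, loam/sand soil. Formulation: non-phytotoxic solvent mix plus surfactant. Pre: directed spray onto soil after sowing. Post: plants at 1–2 leaf, 2–10 cm. Rated visually vs untreated controls at ~10 d, 0 (no effect) to 100 (complete control).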

barnyardgrass = assay: Test A postemergence; type: in vivo, Echinochloa crus-galli
Outline: as §1

giant foxtail = assay: Test A postemergence; type: in vivo, Setaria faberii
Outline: as §1

wheat = assay: Test A postemergence; type: in vivo, Triticum aestivum
Outline: as §1

blackgrass = assay: Test C postemergence; type: in vivo, Alopecurus myosuroides; conditions: for Blackgrass plant response rating / Plant response rating, Blackgrass: scale 0 to 100 (0 no effect, 100 complete control)
Outline: (§2)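 Seeds were sown in loam–sand blend and sprayed preemergence, while plants at 1- to 4-leaf stage (2–18 cm) in peat-based medium received postemergence sprays; test chemicals were formulated in a non-phytotoxic solvent with surfactant. After 13–15 days in a greenhouse, injury was rated visually against controls, 0 (no effect) to 100 (complete control).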

large (Lg) crabgrass = assay: Test C postemergence; type: in vivo, Digitaria sanguinalis; conditions: for Crabgrass, Large plant response rating / Plant response rating, Crabgrass, Large: scale 0 to 100 (0 no effect, 100 complete control)
Outline: as §2

oilseed rape = assay: Test C postemergence; type: in vivo, Brassica napus; conditions: for Oilseed Rape plant response rating / Plant response rating, Oilseed Rape: scale 0 to 100 (0 no effect, 100 complete control)
Outline: as §2

[1] = 500 g ai/ha, 0 to 100 scale where 0 is no effect and 100 is complete control
[2] = 125 g ai/ha, 0 to 100 scale where 0 is no effect and 100 is complete control
[3] = 8 g ai/ha, postemergence, 0 is no effect, 100 is complete control
[4] = 16 g ai/ha, postemergence, 0 is no effect, 100 is complete control
[5] = 31 g ai/ha, postemergence, visual rating, 13 to 15 days
[6] = 125 g ai/ha, postemergence, visual rating
[7] = Postemergence, 62 g ai/ha, 13 to 15 days
[8] = 1000 g ai/ha, 0 to 100 scale, 0 no effect, 100 complete control
[9] = 500 g ai/ha, 0 to 100 scale, 0 no effect, 100 complete control
[10] = Postemergence, 31 g ai/ha, 13 to 15 days

## O=Cc1cccc(Oc2ncc(I)cn2)c1-n1cc(Br)cn1 [Compound 172]
morningglory; 125 g ai/ha
  Morningglory plant response rating (0 to 100 scale): 0
morningglory; [1]
  Morningglory plant response rating: 0
barnyardgrass; [2]
  Barnyardgrass plant response rating: 30
barnyardgrass; [1]
  Plant response rating, Barnyardgrass: 60
Giant foxtail; [2]
  Foxtail, Giant plant response rating: 0
Giant foxtail; [1]
  Plant response rating, Foxtail, Giant: 20
wheat; [2]
  Wheat plant response rating: 0
wheat; [1]
  Plant response rating, Wheat: 0
blackgrass; [3]
  Plant response rating (0 to 100), Blackgrass: 0
blackgrass; [4]
  Plant response rating (0 to 100), Blackgrass: 0
blackgrass; [5]
  Blackgrass plant response rating: 20
blackgrass; Postemergence, 62 g ai/ha
  Plant response rating, Blackgrass: 0
Large (Lg) crabgrass; [3]
  Plant response rating (0 to 100), Crabgrass, Large: 0
Large (Lg) crabgrass; [4]
  Plant response rating (0 to 100), Crabgrass, Large: 0
Large (Lg) crabgrass; [5]
  Crabgrass, Large plant response rating: 0
Large (Lg) crabgrass; Postemergence, 62 g ai/ha
  Plant response rating, Crabgrass, Large: 0
Oilseed rape; [3]
  Plant response rating (0 to 100), Oilseed Rape: 0
Oilseed rape; [4]
  Plant response rating (0 to 100), Oilseed Rape: 0
Oilseed rape; [5]
  Oilseed Rape plant response rating: 0
Oilseed rape; Postemergence, 62 g ai/ha
  Plant response rating, Oilseed Rape: 0

## Clc1cnc(Oc2cccc(Br)c2-n2cc(Cl)cn2)nc1 [Compound 221]
morningglory; 125 g ai/ha
  Morningglory plant response rating (0 to 100 scale): 0
morningglory; [1]
  Morningglory plant response rating: 10
barnyardgrass; [2]
  Barnyardgrass plant response rating: 50
barnyardgrass; [1]
  Plant response rating, Barnyardgrass: 100
Giant foxtail; [2]
  Foxtail, Giant plant response rating: 50
Giant foxtail; [1]
  Plant response rating, Foxtail, Giant: 90
wheat; [2]
  Wheat plant response rating: 0
wheat; [1]
  Plant response rating, Wheat: 30
blackgrass; [4]
  Plant response rating (0 to 100), Blackgrass: 0
blackgrass; [5]
  Blackgrass plant response rating: 0
blackgrass; [6]
  Plant response rating, Blackgrass: 5
blackgrass; [7]
  Plant response rating, Blackgrass: 5
Large (Lg) crabgrass; [4]
  Plant response rating (0 to 100), Crabgrass, Large: 5
Large (Lg) crabgrass; [5]
  Crabgrass, Large plant response rating: 5
Large (Lg) crabgrass; [6]
  Plant response rating, Crabgrass, Large: 25
Large (Lg) crabgrass; [7]
  Plant response rating, Crabgrass, Large: 5
Oilseed rape; [4]
  Plant response rating (0 to 100), Oilseed Rape: 40
Oilseed rape; [5]
  Oilseed Rape plant response rating: 50
Oilseed rape; [6]
  Plant response rating, Oilseed Rape: 80
Oilseed rape; [7]
  Plant response rating, Oilseed Rape: 60

## Clc1cnc(Oc2ccccc2-n2cc(Br)nn2)nc1 [Compound 223]
morningglory; 1000 g ai/ha, 0 to 100 scale, 0 no effect, 100 complete control, approx. 10 days
  Morningglory plant response rating: 100
barnyardgrass; [8]
  Plant response rating, Barnyardgrass: 100
Giant foxtail; [8]
  Plant response rating, Foxtail, Giant: 90
wheat; [8]
  Plant response rating, Wheat: 70
blackgrass; [4]
  Plant response rating (0 to 100), Blackgrass: 0
blackgrass; [5]
  Blackgrass plant response rating: 30
blackgrass; [6]
  Plant response rating, Blackgrass: 0
blackgrass; [7]
  Plant response rating, Blackgrass: 5
Large (Lg) crabgrass; [4]
  Plant response rating (0 to 100), Crabgrass, Large: 5
Large (Lg) crabgrass; [5]
  Crabgrass, Large plant response rating: 5
Large (Lg) crabgrass; [6]
  Plant response rating, Crabgrass, Large: 5
Large (Lg) crabgrass; [7]
  Plant response rating, Crabgrass, Large: 5
Oilseed rape; [4]
  Plant response rating (0 to 100), Oilseed Rape: 10
Oilseed rape; [5]
  Oilseed Rape plant response rating: 50
Oilseed rape; [6]
  Plant response rating, Oilseed Rape: 85
Oilseed rape; [7]
  Plant response rating, Oilseed Rape: 80

## Fc1cnc(Oc2ccccc2-n2cc(C(F)F)cn2)nc1 [Compound 228]
morningglory; 125 g ai/ha
  Morningglory plant response rating (0 to 100 scale): 10
morningglory; [1]
  Morningglory plant response rating: 80
barnyardgrass; [2]
  Barnyardgrass plant response rating: 10
barnyardgrass; [1]
  Plant response rating, Barnyardgrass: 90
Giant foxtail; [2]
  Foxtail, Giant plant response rating: 50
Giant foxtail; [1]
  Plant response rating, Foxtail, Giant: 90
wheat; [2]
  Wheat plant response rating: 0
wheat; [1]
  Plant response rating, Wheat: 70
blackgrass; [4]
  Plant response rating (0 to 100), Blackgrass: 0
blackgrass; [5]
  Blackgrass plant response rating: 0
blackgrass; [6]
  Plant response rating, Blackgrass: 40
blackgrass; [7]
  Plant response rating, Blackgrass: 0
Large (Lg) crabgrass; [4]
  Plant response rating (0 to 100), Crabgrass, Large: 0
Large (Lg) crabgrass; [5]
  Crabgrass, Large plant response rating: 5
Large (Lg) crabgrass; [6]
  Plant response rating, Crabgrass, Large: 5
Large (Lg) crabgrass; [7]
  Plant response rating, Crabgrass, Large: 5
Oilseed rape; [4]
  Plant response rating (0 to 100), Oilseed Rape: 40
Oilseed rape; [5]
  Oilseed Rape plant response rating: 60
Oilseed rape; [6]
  Plant response rating, Oilseed Rape: 85
Oilseed rape; [7]
  Plant response rating, Oilseed Rape: 60

## Fc1cnc(Oc2ccccc2-n2cc(C(F)(F)F)cn2)nc1 [Compound 47]
morningglory; [2]
  Plant response rating, Morningglory: 0
morningglory; 500 g ai/ha, 0 to 100 scale, 0 no effect, 100 complete control, approx. 10 days
  Morningglory plant response rating: 100
barnyardgrass; [2]
  Plant response rating, Barnyardgrass: 30
barnyardgrass; [9]
  Plant response rating, Barnyardgrass: 100
Giant foxtail; [2]
  Plant response rating, Foxtail, Giant: 80
Giant foxtail; [9]
  Plant response rating, Foxtail, Giant: 100
wheat; [2]
  Plant response rating, Wheat: 60
wheat; [9]
  Plant response rating, Wheat: 100
blackgrass; 125 g ai/ha, postemergence
  Plant response rating (0 to 100), Blackgrass: 5
blackgrass; 250 g ai/ha, postemergence
  Plant response rating (0 to 100), Blackgrass: 40
blackgrass; [10]
  Plant response rating, Blackgrass: 0
blackgrass; Postemergence, 62 g ai/ha
  Plant response rating, Blackgrass: 0
Large (Lg) crabgrass; 125 g ai/ha, postemergence
  Plant response rating (0 to 100), Crabgrass, Large: 5
Large (Lg) crabgrass; 250 g ai/ha, postemergence
  Plant response rating (0 to 100), Crabgrass, Large: 10
Large (Lg) crabgrass; [10]
  Plant response rating, Crabgrass, Large: 5
Large (Lg) crabgrass; Postemergence, 62 g ai/ha
  Plant response rating, Crabgrass, Large: 5
Oilseed rape; 125 g ai/ha, postemergence
  Plant response rating (0 to 100), Oilseed Rape: 55
Oilseed rape; 250 g ai/ha, postemergence
  Plant response rating (0 to 100), Oilseed Rape: 55
Oilseed rape; [10]
  Plant response rating, Oilseed Rape: 15
Oilseed rape; Postemergence, 62 g ai/ha
  Plant response rating, Oilseed Rape: 50

## FC(F)c1cnn(-c2c(Br)cccc2Oc2ncc(Cl)cn2)c1 [Compound 232]
morningglory; 125 g ai/ha
  Morningglory plant response rating (0 to 100 scale): 20
morningglory; [1]
  Morningglory plant response rating: 90
barnyardgrass; [2]
  Barnyardgrass plant response rating: 30
barnyardgrass; [1]
  Plant response rating, Barnyardgrass: 90
Giant foxtail; [2]
  Foxtail, Giant plant response rating: 70
Giant foxtail; [1]
  Plant response rating, Foxtail, Giant: 90
wheat; [2]
  Wheat plant response rating: 20
wheat; [1]
  Plant response rating, Wheat: 50
blackgrass; [4]
  Plant response rating (0 to 100), Blackgrass: 10
blackgrass; [5]
  Blackgrass plant response rating: 0
blackgrass; [6]
  Plant response rating, Blackgrass: 25
blackgrass; [7]
  Plant response rating, Blackgrass: 5
Large (Lg) crabgrass; [4]
  Plant response rating (0 to 100), Crabgrass, Large: 5
Large (Lg) crabgrass; [5]
  Crabgrass, Large plant response rating: 5
Large (Lg) crabgrass; [6]
  Plant response rating, Crabgrass, Large: 5
Large (Lg) crabgrass; [7]
  Plant response rating, Crabgrass, Large: 5
Oilseed rape; [4]
  Plant response rating (0 to 100), Oilseed Rape: 5
Oilseed rape; [5]
  Oilseed Rape plant response rating: 50
Oilseed rape; [6]
  Plant response rating, Oilseed Rape: 60
Oilseed rape; [7]
  Plant response rating, Oilseed Rape: 5

## Fc1cccc(Oc2ncc(Cl)cn2)c1-n1cc(Cl)cn1 [Compound 177]
morningglory; 125 g ai/ha
  Morningglory plant response rating (0 to 100 scale): 20
morningglory; [1]
  Morningglory plant response rating: 80
barnyardgrass; [2]
  Barnyardgrass plant response rating: 40
barnyardgrass; [1]
  Plant response rating, Barnyardgrass: 100
Giant foxtail; [2]
  Foxtail, Giant plant response rating: 80
Giant foxtail; [1]
  Plant response rating, Foxtail, Giant: 100
wheat; [2]
  Wheat plant response rating: 20
wheat; [1]
  Plant response rating, Wheat: 90
blackgrass; [4]
  Plant response rating (0 to 100), Blackgrass: 0
blackgrass; [5]
  Blackgrass plant response rating: 5
blackgrass; [6]
  Plant response rating, Blackgrass: 35
blackgrass; Postemergence, 62 g ai/ha
  Plant response rating, Blackgrass: 5
Large (Lg) crabgrass; [4]
  Plant response rating (0 to 100), Crabgrass, Large: 5
Large (Lg) crabgrass; [5]
  Crabgrass, Large plant response rating: 5
Large (Lg) crabgrass; [6]
  Plant response rating, Crabgrass, Large: 10
Large (Lg) crabgrass; Postemergence, 62 g ai/ha
  Plant response rating, Crabgrass, Large: 10
Oilseed rape; [4]
  Plant response rating (0 to 100), Oilseed Rape: 60
Oilseed rape; [5]
  Oilseed Rape plant response rating: 80
Oilseed rape; [6]
  Plant response rating, Oilseed Rape: 90
Oilseed rape; Postemergence, 62 g ai/ha
  Plant response rating, Oilseed Rape: 90
